Reference: patent publication US11186618B2, “Dendritic-cell-targeted peptide, fusion peptide utilizing said peptide, and vaccine utilizing said fusion peptide” (The Research Foundation for Microbial Diseases of Osaka …, priority 2016, dated 2021)
Entries after “also recorded” stand apart in the source; their conditions may differ.

How the values were obtained:
dendritic cells = settings: Non-Patent Document 2; cited from earlier work
[1] = tested on: mouse-derived dendritic cells (FL-DCs); experiment: Binding of phage clones to mouse-derived dendritic cells by flow cytometric analysis (Test Example 1); format: cell-based; settings: phage clone displaying the peptide, 1.6×10^10 pfu/mL, 1×10^5 mouse-derived dendritic cells, flow cytometry with antibody against the phage
Protocol: Meanwhile, in the following test examples, unless otherwise indicated, as mouse-derived dendritic cells, dendritic cells (FL-DCs) that were obtained by culturing murine bone marrow cells in the presence of Flt3-L (final concentration 100 ng/ml) for 1 week to induce differentiation were used. In addition, in the following test examples, FL-DCs were analyzed in some cases separately for Plasmacytoid DCs (pDCs), CD11b positive dendritic cells (CD11b^+ DCs), and CD11b negative dendritic cells (CD11b^− DCs). Among the mouse-derived dendritic cells, pDCs is a group of CD11c positive and B220 positive cells; CD11b^+ DCs is a group of CD11c positive, B220 negative and CD11b positive cells among mouse-derived dendritic cells; CD11b^− DCs is a group of CD11c positive, B220 negative, and CD11b negative cells among mouse-derived dendritic cells.
Each of phages recovered by three panning operations was monocloned and amplified. 1×10^5 mouse-derived dendritic cells and 1.6×10^10 pfu/mL of each phage clone were mixed, and then the phage was assayed for the binding to dendritic cells by flow cytometric analysis using an antibody against the phage.
About 60 phage clones obtained were subjected to flow cytometric analysis as described above. As a result, 37 clones shown in Table 1 were identified as clones capable of binding to dendritic cells. […]

[2] = tested on: dendritic cells contained in splenocytes; experiment: Binding of phage clones to dendritic cells contained in splenocytes, flow cytometry (Test Example 6); format: cell-based, mouse; settings: phage clone 1.6×10^10 pfu/mL, 1×10^5 splenocytes
Protocol: (§1) Specifically, 1×10^5 splenocytes collected from mice and 1.6×10^10 pfu/mL of each phage clone were mixed, and the biotinylated antibody to the phage was added. Further, streptavidin modified with a fluorescent dye was added, and the binding of the phage to splenocytes was evaluated by flow cytometric analysis.

[3] = tested on: CD4^+ T cells contained in splenocytes; experiment: Binding of phage clones to CD4+ T cells contained in splenocytes, flow cytometry (Test Example 6); format: cell-based, mouse; settings: phage clone 1.6×10^10 pfu/mL, 1×10^5 splenocytes
Protocol: as §1

[4] = tested on: bone marrow-derived dendritic cells (FL-DCs); experiment: Binding of biotinylated peptide/streptavidin complex to dendritic cells, flow cytometry (Test Example 7); format: cell-based, mouse; settings: 0.6 μg complex, PE-labeled streptavidin, FL-DCs and spleen-derived dendritic cells
Protocol: A biotinylated peptide/streptavidin complex was produced in the same manner as in Test Example 4 above using each of the peptide consisting of the amino acid sequence of FL4 identified in Test Example 1 above and its scramble peptide (amino acid sequence: YRSIVKA; SEQ ID NO: 38).
Each of various test cells and 0.6 μg of each of various complexes were mixed, and then the binding of each of various complexes to cells was evaluated by flow cytometric analysis. Cells used were 1×10^5 FL-DCs, 1×10^6 CD11c positive cells purified from the spleen using MACS (the spleen-derived dendritic cells) and 1×10^6 murine splenocytes.

[5] = tested on: NeutrAvidin-specific antibody; experiment: NeutrAvidin-specific antibody titer in sera of mice given biotinylated peptide/NeutrAvidin complex, ELISA (Test Example 12); format: in vivo, mouse; settings: 5 μg as NeutrAvidin, base of tail Day 0 and Day 10, serum Day 17, IgG
From the text: A biotinylated peptide was synthesized by linking the N-terminus of each of FL4 identified in Test Example 1, a peptide Mut 1 (amino acid sequence: ASYKAIR (SEQ ID NO: 2)) derived from FL4 of which the 1st amino acid residue was substituted by an alanine residue, a peptide Mut 2 (amino acid sequence: VAYKAIR (SEQ ID NO: 3)) derived from FL4 of which the 2nd amino acid residue was substituted by an alanine residue, a peptide Mut 3 (amino acid sequence: VSAKAIR, SEQ ID NO: 43) derived from FL4 of which the 3rd amino acid residue was substituted by an alanine residue, and a peptide Mut 4 (amino acid sequence: VSYKAAR, SEQ ID NO: 44) derived from FL4 of which the […] amino acid residue was substituted by an alanine residue to biotin. Subsequently, a biotinylated peptide/NeutrAvidin complex was produced by mixing each of the obtained biotinylated peptides and NeutrAvidin.
50 μL of physiological saline containing 5 μg of the complex or NeutrAvidin in terms of NeutrAvidin amount was administered into the base of the tail of each 7-week old C57BL/6 mouse on Day 0 and Day 10, and blood was collected on Day 17. As a control, a test was also carried out in the case where only physiological saline was administered in the same manner Meanwhile, in these tests, five mice in each group were used.
Sera were obtained from the blood collected on Day 17 and NeutrAvidin-specific antibody titer (IgG) in the sera was measured by ELISA. In FIG. 18, “NA” refers to the case of administration of NeutrAvidin, and “NA-FL4” refers to the case of administration of the biotinylated FL4/NeutrAvidin complex. Other peptides are shown in the same display format. Further, in FIG. 18, “cont” refers to the case where physiological saline was administered.

Clec9a = settings: Non-Patent Document 1; cited from earlier work
Chain of Clec9a (Q8BRU4 106-238 limits assumed): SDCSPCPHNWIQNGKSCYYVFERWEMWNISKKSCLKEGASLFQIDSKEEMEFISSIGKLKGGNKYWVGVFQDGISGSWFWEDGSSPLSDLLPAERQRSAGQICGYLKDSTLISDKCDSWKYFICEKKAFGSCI

NWYLPWLGTNDW (NW peptide)
binding ability to dendritic cells (dendritic cells): high binding ability to dendritic cells

VSYKAIR (Amino acid sequence of motif sequence) [FL4, also tested as biotinylated complex]
binding of phage clone to dendritic cells [1]: bound to all dendritic cells; also recorded: binding to bone marrow-derived dendritic cells was confirmed
binding of phage clone to dendritic cells contained in splenocytes [2]: bind to all dendritic cells contained in splenocytes; also recorded: equivalent to that of FL8
binding of phage clone to CD4+ T cells contained in splenocytes [3]: also bound to CD4^+ T cells contained in splenocytes
binding ability of biotinylated peptide/streptavidin complex to dendritic cells [4]: equivalent to that of the peptide consisting of the amino acid sequence of FL8
NeutrAvidin-specific antibody production [5]: excellent production ability

WPRFHSSVFHTH (WH peptide)
binding to Clec9a expressed on dendritic cells (Clec9a): can selectively bind to Clec9a
